This is an account of results in patent US8865910B2 (priority 2010, dated 2014).

One assay relates to M. tuberculosis H37Rv. The note with it: BACTEC 12B medium; cited from earlier work.
The test system of a further assay is M. bovis BCG. In words: microbe, parasite or virus in culture. It counts as cell-based, Mycobacterium bovis BCG. The settings on record: for inhibition at 100 µg/mL: Mycobacterium tuberculosis variant bovis BCG, BCG, 192 h.
For another assay, the system named is dormant tubercle bacilli. The note with it: cited from earlier work.
A further assay deals with M. tuberculosis. In words: Antitubercular activity against active and dormant bacilli of M. tuberculosis. In kind it is cell-based, Mycobacterium tuberculosis H37Ra.
[1] abbreviates: read-out: Antimycobacterial activity % inhibition at 100 μg/ml Aerobic/Active stage.
Where [2] appears, read: read-out: Antimycobacterial activity % inhibition at 100 μg/ml Anearobic/Dormant stage.

Read-outs that look alike come from different tables or passages of the source.

As for `CCCSc1nnc(-c2ncc([N+](=O)[O-])n2C)s1` [2-(1-Methyl-5-nitro-1H-imidazol-2-yl)-5-(n-propyl)thio-1,3,4-thiadiazole], the “inhibition effects in the primary screening” value (from here on “inhibition effects”) with M. tuberculosis H37Rv is listed as 90%.

On to `O=[N+]([O-])c1ccc(-c2nnc(SCc3ccccc3[N+](=O)[O-])s2)o1` [2-(5-nitro-2-furyl)-5-(2-nitrobenzyl)thio-1,3,4-thiadiazole], for which the “inhibition effects” value with M. tuberculosis H37Rv is recorded as 90%.

As for `C#CCSc1nnc(-c2ccc([N+](=O)[O-])o2)s1` [2-(5-nitro-2-furyl)-5-(2-propynyl)thio-1,3,4-thiadiazole], in the assay with M. tuberculosis H37Rv, the “inhibition effects” value is recorded as 90%.

For `O=[N+]([O-])c1cccc(CSc2nnc(-c3ccc([N+](=O)[O-])o3)s2)c1` [2-(5-nitro-2-furyl)-5-(3-nitrobenzyl)thio-1,3,4-thiadiazole], in the assay with M. tuberculosis H37Rv, the “inhibition effects” value is given as 90%.

On to `O=[N+]([O-])c1ccc(CSc2nnc(-c3ccc([N+](=O)[O-])o3)s2)cc1` [2-(5-nitro-2furyl)-5-(4-nitrobenzyl)thio-1,3,4-thiadiazole], for which the “inhibition effects” value in the assay with M. tuberculosis H37Rv was 90%.

As for `C#CCn1nc(SCC=C)nc1C(C)(C)C` [8d, 3-(allylthio)-5-tert-butyl-1-(prop-2-ynyl)-1H-1,2,4-triazole], the inhibition at 100 µg/mL with M. bovis BCG (setting [1]) was determined as 98%; in the assay on M. bovis BCG (setting [2]) it was 82%.

For `C#CCSc1ncnn1CC=C` [9a, 1-allyl-5-(prop-2-ynylthio)-1H-1,2,4-triazole], the inhibition at 100 µg/mL in the assay on M. bovis BCG (setting [1]) amounted to 40%; with M. bovis BCG (setting [2]), 22%.

Turning to `C#CCSc1nc(C)nn1CC=C` [10a, 1-allyl-3-methyl-5-(prop-2-ynylthio)-1H-1,2,4-triazole], the results for the inhibition at 100 µg/mL in the assay with M. bovis BCG (setting [1]) and with M. bovis BCG (setting [2]) were 98% and 93%, respectively.

`C#CCSc1nc(C)n(CC=C)n1` [10b, 1-allyl-5-methyl-3-(prop-2ynylthio)-1H-1,2,4-triazole]: the results for the inhibition at 100 µg/mL in the assay on M. bovis BCG (setting [1]) and in the assay with M. bovis BCG (setting [2]) were 98% and 92%, respectively.

Consider `C#CCn1nc(Br)nc1Br` [11a, 3,5-dibromo-1-(prop-2-ynyl)-1H-1,2,4-triazole], for which the inhibition at 100 µg/mL in the assay with M. bovis BCG (setting [1]) worked out at 97%; in the assay on M. bovis BCG (setting [2]), 20%.

`C=CCn1nc(Br)nc1Br` [11b, 1-allyl-3,5-dibromo-1H-1,2,4-triazole]: the figures for the inhibition at 100 µg/mL with M. bovis BCG (setting [1]) and in the assay with M. bovis BCG (setting [2]) were 12% and 21%, respectively.

Regarding `C=C(C)Cn1nc(Br)nc1Br` [11c, 3,5-dibromo-1-(2-methylallyl)-1H-1,2,4-triazole], the figures for the inhibition at 100 µg/mL with M. bovis BCG (setting [1]) and with M. bovis BCG (setting [2]) were 9% and 19%, respectively.

Regarding `Brc1nc(Br)n(Cc2cn(Cc3ccccc3)nn2)n1` [11d, 1-benzyl-4-((3,5-dibromo-1H-1,2,4-triazol-1-yl)methyl)-1H-1,2,3-triazole], the inhibition at 100 µg/mL is 2% in the assay on M. bovis BCG (setting [1]) and 13% in the assay on M. bovis BCG (setting [2]).

On to `OC(Cn1cncn1)(Cn1cncn1)c1ccc(F)cc1F` [Fluconazole], for which the “Effectiveness against dormant tubercle bacilli” value in the assay on dormant tubercle bacilli was “not effective”.

Regarding `C=CCSc1n[nH]c(-c2ccc(Cl)cc2)n1` [compound 4f, 3-(allylthio)-5-(4-chlorophenyl)-1H-1,2,4-triazole], the “Effectiveness against active and dormant stage of the bacilli” value with M. tuberculosis is “effective against both active as well as dormant stage”; with M. bovis BCG (M. bovis BCG, active and dormant stage) it was “effective against both active as well as dormant stage”. Besides, the inhibition at 100 µg/mL with M. bovis BCG (setting [1]) was 98%; in the assay on M. bovis BCG (setting [2]), 91%.

With `CC(C)(C)C(O)(CCc1ccc(Cl)cc1)Cn1cncn1` (stereo not drawn) [tebuconazole], in the assay with dormant tubercle bacilli, the “Effectiveness against dormant tubercle bacilli” value is reported as “not effective”.
